Data: the supplement of paper PMC8967900

Experiments:
Experiment in all cases: selective drug sensitivity score (sDSS, relative to normal bone marrow) (sDSS (score)); higher = more potent and effective on the cell line relative to normal bone marrow cells
Conditions in all cases: 72 h
MN-60 = tested on: MN-60
MOLT-4 = tested on: MOLT-4
MOLT-14 = tested on: MOLT-14
DND-41 = tested on: DND-41
RPMI-8402 = tested on: RPMI-8402
MHH-CALL-4 = tested on: MHH-CALL-4
KARPAS-45 = tested on: KARPAS-45
NALL-1 = tested on: NALL-1
CCRF-CEM = tested on: CCRF-CEM
KASUMI-10 = tested on: KASUMI-10
KOPN-8 = tested on: KOPN-8
TMD5 = tested on: TMD5
P30-OHKUBO = tested on: P30-OHKUBO
REH = tested on: REH
COG-LL-332h = tested on: COG-LL-332h
HAL-01 = tested on: HAL-01
LC4-1 = tested on: LC4-1
HPB-ALL = tested on: HPB-ALL
ALL-PO = tested on: ALL-PO
NALM-6 = tested on: NALM-6
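Note: ALL cell lines in 384-well plates, five doses spanning 10,000-fold, each plate scaled between vehicle and 100 µmol/L benzalkonium chloride controls, sDSS an adapted area-under-curve metric.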

| Structure (SMILES) | selective drug sensitivity score (MN-60) | selective drug sensitivity score (MOLT-4) | selective drug sensitivity score (MOLT-14) | selective drug sensitivity score (DND-41) | selective drug sensitivity score (RPMI-8402) | selective drug sensitivity score (MHH-CALL-4) | selective drug sensitivity score (KARPAS-45) | selective drug sensitivity score (NALL-1) | selective drug sensitivity score (CCRF-CEM) | selective drug sensitivity score (KASUMI-10) | selective drug sensitivity score (KOPN-8) | selective drug sensitivity score (TMD5) | selective drug sensitivity score (P30-OHKUBO) | selective drug sensitivity score (REH) | selective drug sensitivity score (COG-LL-332h) | selective drug sensitivity score (HAL-01) | selective drug sensitivity score (LC4-1) | selective drug sensitivity score (HPB-ALL) | selective drug sensitivity score (ALL-PO) | selective drug sensitivity score (NALM-6) |
| --- | --- | --- | --- | --- | --- | --- | --- | --- | --- | --- | --- | --- | --- | --- | --- | --- | --- | --- | --- | --- |
| O=C(/C=C/c1cccnc1)NCCCCC1CCN(C(=O)c2ccccc2)CC1 [Daporinad] (top concentration 1000 nM) | 6.66 | 5.86 | 4.66 | 19.9 | 16.3 | 7.66 | 18.4 | 15.9 | 8.56 | 12.1 | 19.8 | 4.46 | 16 | 15.5 | 17 | 7.26 | 14.2 | 7.96 | 13.8 | 15.6 |
| Nc1nc(NC2CC2)cc(-c2cccc(Cl)c2Cl)n1 [TH588] (top concentration 25000 nM) | -0.58 | 9.12 | 10.8 | 5.82 | 5.72 | -0.58 | 8.12 | -0.28 | 7.52 | 6.22 | 7.22 | -0.28 | 4.02 | 5.82 | 6.82 | -0.58 | 8.72 | 3.92 | 10.5 | -0.58 |
| Cc1ccc(Nc2nccc(N(C)c3ccc4c(C)n(C)nc4c3)n2)cc1S(N)(=O)=O [Pazopanib] (top concentration 10000 nM) | -0.86 | -1.06 | -1.26 | 0.04 | 2.44 | -1.26 | 1.74 | -1.26 | 0.04 | 2.24 | 5.64 | 4.54 | 5.14 | 4.14 | 0.14 | -0.16 | 5.24 | 0.64 | -1.06 | -1.26 |
| CN(C)Cc1ccc(S(=O)(=O)n2ccc(/C=C/C(=O)NO)c2)cc1 [Resminostat] (top concentration 10000 nM) | 2.34 | 1.24 | 9.74 | 1.74 | 7.24 | 7.04 | 8.34 | -4.46 | 3.74 | 5.94 | 10.1 | 0.34 | 7.94 | 2.04 | 1.34 | 1.84 | 4.54 | 6.24 | 6.34 | 1.34 |
| Cc1c(-c2ccc(N3CCc4cccc(C(=O)Nc5nc6ccccc6s5)c4C3)nc2C(=O)O)cnn1CC12CC3CC(CC(C3)C1)C2 (top concentration 1000 nM) | -2.26 | 23.6 | 6.34 | 19.7 | 13 | 2.24 | 23.8 | 0.14 | 18.6 | 3.04 | 0.74 | -2.26 | -2.26 | -2.26 | 9.14 | -1.86 | -2.26 | 25.5 | -1.86 | 5.84 |
| C=CC(=O)Nc1cc2c(Nc3ccc(F)c(Cl)c3)ncnc2cc1OCCCN1CCOCC1 [Canertinib] (top concentration 10000 nM) | -4.14 | -2.14 | -0.04 | 1.36 | -1.54 | 1.66 | -0.24 | -0.94 | 1.56 | 4.66 | 4.36 | 4.96 | 2.26 | 0.26 | 1.86 | 2.76 | 2.76 | 0.76 | 2.86 | -1.34 |
| Cc1cc(Nc2cc(CN3CCOCC3)c3nc(C)c(Cc4ccc(Cl)cc4F)n3n2)n[nH]1 [Gandotinib] (top concentration 10000 nM) | -3.22 | 4.88 | 3.18 | 7.28 | 0.78 | 4.78 | 9.48 | 4.88 | 5.68 | 7.28 | 8.28 | -0.82 | 6.28 | 4.98 | 2.18 | 4.68 | 6.98 | 1.58 | 4.98 | 4.58 |
| COC(=O)C[C@](O)(CCCC(C)(C)O)C(=O)O[C@@H]1C(OC)=C[C@]23CCCN2CCc2cc4c(cc2[C@H]13)OCO4 [Omacetaxine] (top concentration 10000 nM) | -3.88 | 3.32 | 5.62 | -2.78 | 3.92 | 3.52 | 3.72 | -6.78 | 3.02 | 4.82 | 5.02 | -2.08 | 3.12 | -1.08 | 2.62 | 1.32 | 1.52 | -4.48 | -3.38 | 4.52 |
| Cc1ccc(NC(=O)c2ccc(CN3CCN(C)CC3)cc2)cc1Nc1nccc(-c2cccnc2)n1 [Imatinib] (top concentration 10000 nM) | -0.44 | -0.34 | 0.46 | 0.26 | 1.46 | -0.44 | 1.96 | -0.44 | -0.44 | -0.44 | -0.04 | 8.96 | 0.06 | 0.56 | 10.2 | -0.44 | 0.36 | 1.06 | 1.86 | -0.44 |
| CC(C)C[C@@H](C(=O)N[C@H](C(=O)OC1CCCC1)c1ccccc1)[C@H](O)C(=O)NO [Tosedostat] (top concentration 10000 nM) | -2.44 | -0.54 | 6.46 | 5.16 | 2.86 | 1.26 | 8.66 | 0.86 | 4.36 | 7.06 | 10.8 | 0.46 | 4.96 | -0.64 | 2.26 | -3.84 | 2.26 | -4.94 | 6.96 | -1.04 |
| CNC(=O)c1cc(Oc2ccc(NC(=O)Nc3ccc(Cl)c(C(F)(F)F)c3)c(F)c2)ccn1 [Regorafenib] (top concentration 10000 nM) | 1.34 | 3.24 | 4.04 | 4.44 | 3.44 | 2.74 | 3.44 | 3.24 | 3.74 | 7.34 | 10.9 | 2.74 | 4.04 | 4.44 | 6.74 | 2.04 | 6.74 | 1.34 | 7.14 | 4.04 |
| CC(C)NC[C@@H](C(=O)N1CCN(c2ncnc3c2[C@H](C)C[C@H]3O)CC1)c1ccc(Cl)cc1 [Ipatasertib] (top concentration 10000 nM) | -1.8 | 7.1 | -1.8 | 1.1 | 4.8 | 4.5 | 5.2 | 1.8 | 10.7 | 0.7 | 4.3 | -1.8 | 1.9 | 13.2 | 5.8 | 1.8 | -0.6 | 0.9 | 6.7 | 6.2 |
| S=C(NCc1ccc2c(c1)OCO2)N1CCN(c2ncnc3c2oc2ccccc23)CC1 [Amuvatinib] (top concentration 10000 nM) | 5.46 | 4.66 | 3.56 | 4.16 | 10.9 | 2.16 | 5.06 | 2.16 | 1.56 | -1.44 | 8.76 | 4.16 | 4.26 | 5.56 | 2.96 | 2.96 | 4.56 | 2.66 | 1.16 | 3.86 |
| CC(C)(C)c1cc(NC(=O)Nc2ccc(-c3cn4c(n3)sc3cc(OCCN5CCOCC5)ccc34)cc2)no1 [Quizartinib] (top concentration 1000 nM) | -1.52 | -0.82 | -1.02 | 5.38 | 1.18 | -1.52 | 3.68 | -1.02 | 0.98 | 17.8 | 7.58 | -1.52 | 0.68 | -1.52 | 2.78 | 3.18 | 4.78 | 5.18 | 14.1 | 1.38 |
| Cc1cn(-c2cc(NC(=O)c3ccc(C)c(Nc4nccc(-c5cccnc5)n4)c3)cc(C(F)(F)F)c2)cn1 [Nilotinib] (top concentration 10000 nM) | 0 | 3.6 | 2.1 | 2.8 | 1.8 | 2 | 4.2 | 5.8 | 2.1 | 0 | 9.7 | 21 | 2.5 | 2.5 | 16.4 | 3.3 | 9.1 | 0 | 4.6 | 0 |
| Nc1nc2[nH]cc(CCc3ccc(C(=O)N[C@@H](CCC(=O)O)C(=O)O)cc3)c2c(=O)[nH]1 [Pemetrexed] (top concentration 10000 nM) | 11.6 | 21.5 | 20.2 | 18.6 | 24.8 | 15.2 | 9.98 | 12.2 | 23.6 | 19.1 | 30.2 | -0.72 | 26.4 | 22.1 | 21.9 | 20.8 | 21 | 9.98 | 30.9 | 24.5 |
| CN(C)c1cc2c(cc1Sc1nc3c(N)nccc3n1CCNCC(C)(C)C)OCO2 [CUDC-305] (top concentration 10000 nM) | 1.42 | 6.02 | 5.12 | 5.92 | 1.42 | 0.92 | 5.02 | 0.42 | 3.32 | 3.52 | 4.32 | 1.82 | 1.72 | 3.32 | 3.82 | 3.32 | -0.98 | 4.42 | 7.52 | 4.72 |
| C[C@]12C=CC(=O)C=C1CC[C@@H]1[C@@H]2[C@@H](O)C[C@@]2(C)[C@H]1CC[C@]2(O)C(=O)CO [Prednisolone] (top concentration 10000 nM) | -3 | 1.1 | -0.5 | 29.4 | -1.3 | 25.5 | 12.3 | 18 | 6.4 | -3 | 22.6 | 4.8 | 15 | -3 | 2.5 | -2.6 | 8.4 | 2.2 | 28.9 | 15.9 |
